# Laboratory results from US20230416293A1, “SYNTHESIS OF [18F]-LABELED THYMIDINE ANALOGUES” (UNIVERSITY OF SOUTHERN CALIFORNIA, priority 2020, published 2023).
# How the values were obtained:
# [1] = 1-octanol/PBS partition coefficient (Log P); type: physicochemical; conditions: for Partition coefficients of 1-octanol/PBS: room temperature, PBS pH 7.4, quintuplicate
# MDA-MB-231 tumor = test: microPET imaging of subcutaneous MDA-MB-231 tumor-bearing nude mice; type: in vivo; conditions: MDA-MB-231 tumor model; for tumor uptake: intravenous, n=3
# Experimental: (§1) After the intravenous injection of [^18F]FMAU at 1 h and 2 h, the mice (n=3/group) were scanned through a microPET imaging system. […] For microPET scans, radioactivity accumulations in tumors and major tissues/organs were quantified by calculating the ROIs that comprised the entire organ on the coronal images.
# (§2) Tumor cells were cultured in Dulbecco's Modified Eagle Medium (DMEM) supplemented with 10% fetal bovine serum at 37° C. in a humidified incubator containing 5% CO2.
# (§3) Both MDA-MB-231 and U-87 MG tumor xenograft models (n=3/group) were generated by subcutaneous injection of 5×10^6 tumor cells into the front right flank of female athymic nude mice (4-6 weeks old) purchased from Envigo Inc., Indianapolis, IN. The tumors were permitted to grow 2-4 weeks until approximate 0.6-0.8 cm^3 in volume.
# (§4) MicroPET scans were carried out using a rodent scanner (Siemens Inveon microPET scanner, Siemens Medical Solutions). About 7.4 MBq (200 μCi) of [^18F]FMAU was injected through the tail vein under isoflurane anesthesia condition. Five-minute static scans were obtained at 60- and 120-min post-injection (p.i.). The 3D-OSEM algorithm was applied for image reconstruction. For each microPET scan, the regions of interest (ROIs) were drawn over tumor, muscle, liver, and kidneys on the decay-corrected whole-body coronal images. The tumor-to-muscle (T/M), tumor-to-liver (T/L), and tumor-to-kidney (T/K) ratios were then calculated.
# U-87 MG tumor = test: microPET imaging of subcutaneous U-87 MG tumor-bearing nude mice; type: in vivo; conditions: U-87 MG tumor model; for tumor uptake: intravenous, n=3
# Experimental: as §1, §2, §3, §4
# [2] = 1-octanol/PBS pH 7.4, room temperature, quintuplicate
smiles,measurement,setting,value
"O=c1ccn([C@@H]2O[C@H](CO)[C@@H](O)[C@@H]2[18F])c(=O)[nH]1 [[^18F]FAU, 2′-Deoxy-2′-[^18F]fluoro-1-β-D-arabinofuranosyluracil]",Log P,[1]; [2],−0.943±0.041
same,Partition coefficients of 1-octanol/PBS,[1],0.114 ± 0.011
"O=c1[nH]c(=O)n([C@@H]2O[C@H](CO)[C@@H](O)[C@@H]2[18F])cc1F [[^18F]FFAU, 2′-deoxy-2′-[^18F]fluoro-5-fluoro-1-β-D-arabinofuranosyluracil]",Log P,[1]; [2],−0.952±0.023
same,Partition coefficients of 1-octanol/PBS,[1],0.113 ± 0.006
"O=c1[nH]c(=O)n([C@@H]2O[C@H](CO)[C@@H](O)[C@@H]2[18F])cc1Cl [[^18F]FCAU, 2′-deoxy-2′-[^18F]fluoro-5-chloro-1-β-D-arabinofuranosyluracil]",Log P,[1]; [2],−0.477±0.030
same,Partition coefficients of 1-octanol/PBS,[1],0.334 ± 0.022
"Cc1cn([C@@H]2O[C@H](CO)[C@@H](O)[C@@H]2[18F])c(=O)[nH]c1=O [[^18F]FMAU, 2′-Deoxy-2′-[^18F]fluoro-5-methyl-1-β-D-arabinofuranosyluracil]",Log P,[1]; [2],−0.577±0.003
same,Partition coefficients of 1-octanol/PBS,[1],0.265 ± 0.002
same,ratio of tumor uptake to kidney uptake (T/K),MDA-MB-231 tumor; 1 h p.i.,1.9±0.5
same,ratio of tumor uptake to liver uptake (T/L),MDA-MB-231 tumor; 1 h p.i.,2.1±0.2
same,ratio of tumor uptake to muscle uptake (T/M),MDA-MB-231 tumor; 1 h p.i.,2.8±0.3
same,tumor uptake,MDA-MB-231 tumor; 1 h p.i.,6.4±0.4 % ID/g
same,ratio of tumor uptake to kidney uptake (T/K),MDA-MB-231 tumor; 2 h p.i.,1.9±0.5
same,ratio of tumor uptake to liver uptake (T/L),MDA-MB-231 tumor; 2 h p.i.,2.5±0.2
same,ratio of tumor uptake to muscle uptake (T/M),MDA-MB-231 tumor; 2 h p.i.,3.2±0.7
same,tumor uptake,MDA-MB-231 tumor; 2 h p.i.,7.2±0.6 % ID/g
same,ratio of tumor uptake to kidney uptake (T/K),U-87 MG tumor; 1 h p.i.,1.4±0.2
same,ratio of tumor uptake to liver uptake (T/L),U-87 MG tumor; 1 h p.i.,1.4±0.3
same,ratio of tumor uptake to muscle uptake (T/M),U-87 MG tumor; 1 h p.i.,1.8±0.2
same,tumor uptake,U-87 MG tumor; 1 h p.i.,6.0±0.2 % ID/g
same,ratio of tumor uptake to kidney uptake (T/K),U-87 MG tumor; 2 h p.i.,1.3±0.1
same,ratio of tumor uptake to liver uptake (T/L),U-87 MG tumor; 2 h p.i.,1.5±0.3
same,ratio of tumor uptake to muscle uptake (T/M),U-87 MG tumor; 2 h p.i.,1.9±0.3
same,tumor uptake,U-87 MG tumor; 2 h p.i.,5.6±0.4 % ID/g
"CCc1cn([C@@H]2O[C@H](CO)[C@@H](O)[C@@H]2[18F])c(=O)[nH]c1=O [[^18F]FEAU, 2′-deoxy-2′-[^18F]fluoro-5-ethyl-1-β-D-arabinofuranosyluracil]",Log P,[1]; [2],−0.077±0.018
same,Partition coefficients of 1-octanol/PBS,[1],0.837 ± 0.035
"O=c1[nH]c(=O)n([C@@H]2O[C@H](CO)[C@@H](O)[C@@H]2[18F])cc1I [[^18F]FIAU, 2′-deoxy-2′-[^18F]fluoro-5-iodo-1-β-D-arabinofuranosyluracil]",Log P,[1]; [2],−0.108±0.013
same,Partition coefficients of 1-octanol/PBS,[1],0.780 ± 0.024
"O=c1[nH]c(=O)n([C@@H]2O[C@H](CO)[C@@H](O)[C@@H]2F)cc1Br [[^18F]FBAU, 1-(2-deoxy-2-fluoro-β-D-arabinofuranosyl)-5-bromouracil]",logP,[1]; [2],-0.367 ± 0.025
